Test results from paper PMC9518283 (Journal of Enzyme Inhibition and Medicinal Chemistry, 2022).

Legend:
[1] = biological target: T1, hMAO-A (Homo sapiens, UniProt P21397); assay: hMAO-A inhibition, kynuramine substrate, HPLC-MS; type: biochemical; settings: residual enzyme activity; for % of MAO-A activity (1 µM): compound at 1 µM; for % of MAO-A activity (10 µM): compound at 10 µM
T1 construct: purchased Sigma-Aldrich (St. Louis, MO, USA)
T1 sequence (P21397 1-527): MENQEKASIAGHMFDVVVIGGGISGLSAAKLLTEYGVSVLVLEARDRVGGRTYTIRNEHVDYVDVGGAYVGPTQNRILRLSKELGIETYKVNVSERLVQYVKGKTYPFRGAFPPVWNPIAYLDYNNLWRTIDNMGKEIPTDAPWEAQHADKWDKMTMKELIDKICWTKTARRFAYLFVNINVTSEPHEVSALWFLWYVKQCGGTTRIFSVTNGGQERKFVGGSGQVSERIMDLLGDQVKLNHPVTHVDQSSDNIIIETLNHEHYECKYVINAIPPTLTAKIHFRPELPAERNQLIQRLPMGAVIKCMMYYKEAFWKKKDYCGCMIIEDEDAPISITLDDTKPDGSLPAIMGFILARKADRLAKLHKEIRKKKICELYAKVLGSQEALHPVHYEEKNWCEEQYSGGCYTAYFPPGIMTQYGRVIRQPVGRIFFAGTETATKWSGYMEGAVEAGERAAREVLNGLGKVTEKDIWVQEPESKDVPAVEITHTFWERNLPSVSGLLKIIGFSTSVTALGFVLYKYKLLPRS
Procedure: (§1) The hMAO-A and hMAO-B enzymes were purchased from Sigma-Aldrich (St. Louis, MO, USA). […] The mixture was pre-incubated at 37 °C for 5 min and subsequently substrate kynuramine was added to the final concentration of 60 µM in the case of hMAO-A and 30 µM in the case of hMAO-B. The final volume of reaction mixture was 0.1 mL. The whole reaction mixture was incubated at 37 °C for 30 min. The reaction was stopped by the addition of 200 µL acetonitrile/methanol mixture (ratio 1:1) and cooling down to 0 °C. […] Eluents: (A) 0.1% formic acid in water; (B) 0.1% formic acid in acetonitrile.

[2] = biological target: human AChE (hAChE; EC 3.1.1.7) (Homo sapiens, UniProt P22303); assay: biochemical; settings: for IC50: mean of at least three experiments, read-out: IC50 hAChE ± STD; for SI (hBChE/hAChE): ratio IC50(hBChE)/IC50(hAChE)
human AChE (hAChE; EC 3.1.1.7), sequence (P22303 32-614): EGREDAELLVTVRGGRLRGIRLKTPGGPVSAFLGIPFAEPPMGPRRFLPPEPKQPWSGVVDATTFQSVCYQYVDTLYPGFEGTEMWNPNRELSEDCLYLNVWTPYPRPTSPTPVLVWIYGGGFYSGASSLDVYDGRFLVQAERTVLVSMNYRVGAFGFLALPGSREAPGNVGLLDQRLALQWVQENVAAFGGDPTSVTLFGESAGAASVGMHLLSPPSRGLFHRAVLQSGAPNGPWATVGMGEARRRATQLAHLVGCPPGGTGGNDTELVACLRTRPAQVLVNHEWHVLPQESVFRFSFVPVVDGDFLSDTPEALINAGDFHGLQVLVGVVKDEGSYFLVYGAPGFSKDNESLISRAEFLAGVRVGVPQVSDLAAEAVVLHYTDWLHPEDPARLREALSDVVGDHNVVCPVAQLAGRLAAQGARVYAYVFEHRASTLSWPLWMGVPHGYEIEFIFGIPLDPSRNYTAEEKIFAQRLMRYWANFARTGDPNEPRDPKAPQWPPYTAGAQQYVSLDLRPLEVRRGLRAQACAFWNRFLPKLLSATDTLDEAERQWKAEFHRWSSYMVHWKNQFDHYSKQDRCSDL
Procedure: (§2) For that purpose, Ellman’s colorimetric assay was used[35].
(§3) The catalytic activity of both cholinesterases was determined by standard Ellman’s method adapted for 96-well plates. All tested inhibitors were freshly prepared in 50% DMSO/50% methanol at 10 mM concentration as stock solutions and then diluted in 0.1 M phosphate buffer, pH 7.4. […] The mixture was pre-incubated at 37 °C for 15 min and subsequently substrate (acetylthiocholine iodide or butyrylthiocholine iodide) was added to the final concentration of 1000 μM. The final volume of the reaction was 100 μL. The catalytic activity was evaluated as the amount of product (%) formed by enzyme after 10 min of incubation at 37 °C. The IC50 values from three independent experiments for each inhibitor concentration in triplicate were calculated using non-linear regression curve analysis in Prism version 7 Software (GraphPad Software Inc., San Diego, CA).

[3] = biological target: human butyrylcholinesterase (hBChE; EC 3.1.1.8) (Homo sapiens, UniProt P06276); assay: biochemical; settings: mean of at least three experiments; read-out: IC50 hBChE ± STD
human butyrylcholinesterase (hBChE; EC 3.1.1.8), sequence (P06276 29-602): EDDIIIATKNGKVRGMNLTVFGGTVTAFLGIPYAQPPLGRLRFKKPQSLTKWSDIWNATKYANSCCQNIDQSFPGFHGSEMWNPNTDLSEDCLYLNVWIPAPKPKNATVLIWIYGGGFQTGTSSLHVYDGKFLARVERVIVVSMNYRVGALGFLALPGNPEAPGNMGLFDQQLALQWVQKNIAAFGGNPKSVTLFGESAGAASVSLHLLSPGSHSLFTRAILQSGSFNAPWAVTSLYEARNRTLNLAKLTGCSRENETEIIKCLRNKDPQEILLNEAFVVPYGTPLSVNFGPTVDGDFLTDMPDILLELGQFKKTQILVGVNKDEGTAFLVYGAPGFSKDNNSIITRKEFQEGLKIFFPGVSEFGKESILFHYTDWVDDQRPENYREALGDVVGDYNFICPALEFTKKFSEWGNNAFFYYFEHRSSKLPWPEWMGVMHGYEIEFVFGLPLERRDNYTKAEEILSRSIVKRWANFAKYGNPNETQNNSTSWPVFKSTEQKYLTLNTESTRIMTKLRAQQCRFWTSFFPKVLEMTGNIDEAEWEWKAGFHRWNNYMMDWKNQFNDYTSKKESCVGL
Procedure: as §2, §3

[4] = biological target: T2, hMAO-B (Homo sapiens, UniProt P27338); assay: biochemical; settings: residual enzyme activity; for % of MAO-B activity (1 µM): compound at 1 µM; for % of MAO-B activity (10 µM): compound at 10 µM
T2 construct: purchased Sigma-Aldrich (St. Louis, MO, USA)
T2 sequence (P27338 1-520): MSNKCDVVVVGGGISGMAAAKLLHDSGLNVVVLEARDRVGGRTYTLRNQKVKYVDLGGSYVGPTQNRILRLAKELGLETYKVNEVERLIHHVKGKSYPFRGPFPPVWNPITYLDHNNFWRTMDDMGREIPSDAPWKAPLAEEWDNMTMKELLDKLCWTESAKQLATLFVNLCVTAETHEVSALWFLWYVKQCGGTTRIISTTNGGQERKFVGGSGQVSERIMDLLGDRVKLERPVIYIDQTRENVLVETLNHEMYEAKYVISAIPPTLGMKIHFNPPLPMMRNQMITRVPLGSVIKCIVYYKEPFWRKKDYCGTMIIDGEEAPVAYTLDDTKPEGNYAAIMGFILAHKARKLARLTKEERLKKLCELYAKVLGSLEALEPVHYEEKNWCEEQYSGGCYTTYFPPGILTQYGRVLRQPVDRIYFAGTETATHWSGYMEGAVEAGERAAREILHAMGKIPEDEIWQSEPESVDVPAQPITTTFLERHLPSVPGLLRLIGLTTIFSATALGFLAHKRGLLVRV
Procedure: as §1

| SMILES | % of MAO-A activity (1 µM) [1] [%] | % of MAO-A activity (10 µM) [1] [%] | IC50 [2] [nM] | IC50 [3] [nM] | % of MAO-B activity (1 µM) [4] [%] | % of MAO-B activity (10 µM) [4] [%] | SI (hBChE/hAChE) [2] |
| --- | --- | --- | --- | --- | --- | --- | --- |
| C=CCNc1c2c(nc3cc(Cl)ccc13)CCCC2.Cl [Compound 3, 6-Chloro-N-(prop-2-en-1-yl)-1,2,3,4-tetrahydroacridin-9-amine hydrochloride] | 76 | 73 | 70 ± 1 | 3220 ± 129 | 71 | 64 | – |
| C=CCNc1c2c(nc3ccc(OC)cc13)CCCC2.Cl [Compound 5, 7-Methoxy-N-(prop-2-en-1-yl)-1,2,3,4-tetrahydroacridin-9-amine hydrochloride] | 97 | 62 | 2270 ± 62 | 12500 ± 387 | 82 | 70 | 5.52 |
| C#CCN(CC#C)c1c2c(nc3ccc(Oc4ccccc4)cc13)CCCC2.Cl [Compound 14, 7-Phenoxy-N,N-di(prop-2-yn-1-yl)-1,2,3,4-tetrahydroacridin-9-amine hydrochloride] | 93 | 47 | 2880 ± 84 | 12200 ± 713 | 73 | 14 | 4.23 |
| C=CCN(CC=C)c1c2c(nc3ccccc13)CCCC2.Cl [Compound 1, N,N-Di(prop-2-en-1-yl)-1,2,3,4-tetrahydroacridin-9-amine hydrochloride] | 95 | 85 | 493 ± 12 | 716 ± 35 | 89 | 62 | 1.45 |
| C#CCNc1ccnc2cc(Cl)ccc12.Cl [Compound 28, 7-Chloro-N-(prop-2-yn-1-yl)quinolin-4-amine hydrochloride] | 39 | 31 | 8720 ± 242 | – | 150 | 61 | – |
| C#CCN(CC#C)c1c2c(nc3ccc(OC)cc13)CCCC2.Cl [Compound 12, 7-Methoxy-N,N-di(prop-2-yn-1-yl)-1,2,3,4-tetrahydroacridin-9-amine hydrochloride] | 123 | 114 | 5120 ± 184 | 7970 ± 300 | 63 | 45 | 1.56 |
| C=CCNc1ccnc2cc(Cl)ccc12.Cl [Compound 27, 7-Chloro-N-(prop-2-en-1-yl)quinolin-4-amine hydrochloride] | 54 | 19 | 10700 ± 406 | 66300 ± 2070 | 150 | 127 | 6.18 |
| C#CCNc1c2c(nc3ccc(OC)cc13)CCCC2.Cl [Compound 13, 7-Methoxy-N-(prop-2-yn-1-yl)-1,2,3,4-tetrahydroacridin-9-amine hydrochloride] | 96 | 82 | 1360 ± 39 | 3760 ± 210 | 74 | 62 | 2.75 |
| C#CCN(CC#C)CCCNc1c2c(nc3cc(Cl)ccc13)CCCC2.Cl.Cl [Compound 22, N'-(6-Chloro-1,2,3,4-tetrahydroacridin-9-yl)-N,N-di(prop-2-yn-1-yl)propane-1,3-diamine dihydrochloride] | 107 | 102 | 61 ± 2 | 170 ± 13 | 87 | 50 | 2.79 |
| C#CCN(CC#C)c1c2c(nc3cc(Cl)ccc13)CCCC2 [Compound 10] | 92 | 92 | 105 ± 4 | 10900 ± 1020 | 106 | 141 | 103.52 |
| C#CCN(CC#C)c1c2c(nc3ccccc13)CCCC2.Cl [Compound 8, N,N-Di(prop-2-yn-1-yl)-1,2,3,4-tetrahydroacridin-9-amine hydrochloride] | 103 | 111 | 186 ± 5 | 937 ± 43 | 59 | 47 | 5.04 |
| C#CCNCCCNc1c2c(nc3ccc(Oc4ccccc4)cc13)CCCC2.Cl.Cl [Compound 26, N-(7-Phenoxy-1,2,3,4-tetrahydroacridin-9-yl)-N'-(prop-2-yn-1-yl)-propane-1,3-diamine dihydrochloride] | 88 | 79 | 1040 ± 40 | 1060 ± 62 | 14 | 4 | 1.02 |
| C=CCNc1c2c(nc3ccccc13)CCCC2.Cl [Compound 2, N-(prop-2-en-1-yl)-1,2,3,4-tetrahydroacridin-9-amine hydrochloride] | 78 | 58 | 303 ± 4 | 488 ± 19 | 48 | 72 | 1.61 |
| C=CCN(CC=C)c1c2c(nc3ccc(Oc4ccccc4)cc13)CCCC2.Cl [Compound 6, 7-Phenoxy-N,N-di(prop-2-en-1-yl)-1,2,3,4-tetrahydroacridin-9-amine hydrochloride] | 76 | 78 | 9540 ± 138 | 13200 ± 408 | 16 | 4 | 1.38 |
